Source: patent US20260132132A1, “3A,4,5,6-TETRAHYDRO-1 H-PYRAZOLO[3,4-C]PYRIDIN-7(7AH)-ONE DERIVATIVES AS FACTOR XIIA INHIBITORS” (KALVISTA PHARMACEUTICALS LIMITED, priority 2022, published 2026)
pIC50: −log10 of the molar value.

The molecules below were run against T1, Human Factor XIIa (hFXIIa) (Homo sapiens, UniProt P00748) (assay: Determination of Human Factor XIIa (hFXIIa) inhibition, fluorogenic substrate IC50 assay). Conditions: fluorogenic substrate H-DPro-Phe-Arg-AFC at Km, 25° C., read-out: Human FXIIa IC50.
T1 construct: purchased Enzyme Research Laboratories
T1 sequence (P00748 373-615 limits assumed): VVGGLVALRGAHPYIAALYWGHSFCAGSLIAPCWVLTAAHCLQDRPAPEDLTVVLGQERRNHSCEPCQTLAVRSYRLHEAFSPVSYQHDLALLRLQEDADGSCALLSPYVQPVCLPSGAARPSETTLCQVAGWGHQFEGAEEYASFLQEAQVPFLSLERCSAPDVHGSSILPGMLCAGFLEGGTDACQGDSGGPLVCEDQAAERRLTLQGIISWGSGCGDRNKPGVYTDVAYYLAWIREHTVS
T1 sequence (P00748 20-372 partner limits assumed): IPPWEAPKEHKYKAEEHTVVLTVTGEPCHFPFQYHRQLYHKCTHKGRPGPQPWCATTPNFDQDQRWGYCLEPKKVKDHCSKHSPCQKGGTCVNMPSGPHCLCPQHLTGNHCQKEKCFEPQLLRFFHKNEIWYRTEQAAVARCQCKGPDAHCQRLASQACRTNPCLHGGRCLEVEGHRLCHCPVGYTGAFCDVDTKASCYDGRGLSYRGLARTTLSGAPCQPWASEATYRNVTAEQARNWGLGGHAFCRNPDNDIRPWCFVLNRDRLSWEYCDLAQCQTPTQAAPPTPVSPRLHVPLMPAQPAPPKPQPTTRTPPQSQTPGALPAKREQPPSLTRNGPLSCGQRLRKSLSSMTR
Type: biochemical
Experimental: Determination of Human Factor XIIa (hFXIIa) inhibition
The Km for the cleavage of the substrate by hFXIIa was determined by standard transformation of the Michaelis-Menten equation, with subsequent inhibition assays performed at substrate Km concentration.

Row | pIC50 | SMILES
1 | 6.00 to 6.52 | O=C1CC[C@H](CN2CCc3ccc(N4CCc5c(C(=O)NCC6CC6)nn(-c6cccc(Cl)c6)c5C4=O)cc3C2)N1 [Example 1120, (R)-1-(3-chlorophenyl)-N-(cyclopropylmethyl)-7-oxo-6-(2-((5-oxopyrrolidin-2-yl)methyl)-1,2,3,4-tetrahydroisoquinolin-7-yl)-4,5,6,7-tetrahydro-1H-pyrazolo[3,4-c]pyridine-3-carboxamide]
2 | 5.52 to 6.00 | O=C(NCC1CC1)c1nn(-c2cccc(Cl)c2)c2c1CCN(c1ccc3c(c1)CN(CC1CC1(F)F)CC3)C2=O (stereo not drawn) [Example 1097, 1-(3-chlorophenyl)-N-(cyclopropylmethyl)-6-(2-((2,2-difluorocyclopropyl)methyl)-1,2,3,4-tetrahydroisoquinolin-7-yl)-7-oxo-4,5,6,7-tetrahydro-1H-pyrazolo[3,4-c]pyridine-3-carboxamide]
3 | 5.52 to 6.00 | O=C(NCC1CC1)c1nn(-c2cccc(Cl)c2)c2c1CCN(c1cccc(CN3CCCC3)c1)C2=O [Example 1072, 1-(3-Chlorophenyl)-N-(cyclopropylmethyl)-7-oxo-6-(3-(pyrrolidin-1-ylmethyl)phenyl)-4,5,6,7-tetrahydro-1H-pyrazolo[3,4-c]pyridine-3-carboxamide]
4 | 6.52 to 7.00 | CN1CCc2ccc(N3CCc4c(C(=O)N[C@@H](CO)c5ccccc5)nn(-c5cccc(Cl)c5)c4C3=O)cc2C1 [Example 1063, (R)-1-(3-chlorophenyl)-N-(2-hydroxy-1-phenylethyl)-6-(2-methyl-1,2,3,4-tetrahydroisoquinolin-7-yl)-7-oxo-4,5,6,7-tetrahydro-1H-pyrazolo[3,4-c]pyridine-3-carboxamide]
5 | 6.52 to 7.00 | COCCCN1CCc2ccc(N3CCc4c(C(=O)NCC5CC5)nn(-c5cccc(Cl)c5)c4C3=O)cc2C1 [Example 1053, 1-(3-chlorophenyl)-N-(cyclopropylmethyl)-6-(2-(3-methoxypropyl)-1,2,3,4-tetrahydroisoquinolin-7-yl)-7-oxo-4,5,6,7-tetrahydro-1H-pyrazolo[3,4-c]pyridine-3-carboxamide]
6 | 6.52 to 7.00 | COCC(C)N1CCc2ccc(N3CCc4c(C(=O)NCC5CC5)nn(-c5cccc(Cl)c5)c4C3=O)cc2C1 (stereo not drawn) [Example 1060, 1-(3-chlorophenyl)-N-(cyclopropylmethyl)-6-(2-(1-methoxypropan-2-yl)-1,2,3,4-tetrahydroisoquinolin-7-yl)-7-oxo-4,5,6,7-tetrahydro-1H-pyrazolo[3,4-c]pyridine-3-carboxamide]
7 | 6.00 to 6.52 | O=C(NCC1CC1)c1nn(-c2cccc(Cl)c2)c2c1CCN(c1ccc3c(c1)CN(C1CCCC1O)CC3)C2=O (stereo not drawn) [Example 1119, 1-(3-chlorophenyl)-N-(cyclopropylmethyl)-6-(2-(2-hydroxycyclopentyl)-1,2,3,4-tetrahydroisoquinolin-7-yl)-7-oxo-4,5,6,7-tetrahydro-1H-pyrazolo[3,4-c]pyridine-3-carboxamide]
8 | 6.52 to 7.00 | O=C(NCc1ccoc1)c1nn(-c2cccc(Cl)c2)c2c1CCN(c1ccc3c(c1)CN(CCO)CC3)C2=O [Example 1105, 1-(3-chlorophenyl)-N-(furan-3-ylmethyl)-6-(2-(2-hydroxyethyl)-1,2,3,4-tetrahydroisoquinolin-7-yl)-7-oxo-4,5,6,7-tetrahydro-1H-pyrazolo[3,4-c]pyridine-3-carboxamide]
9 | 6.00 to 6.52 | CN1CCc2ccc(-n3cnc4c(C#N)nn(-c5cccc(Cl)c5)c4c3=O)cc2C1 [Example 3001, 1-(3-chlorophenyl)-6-(2-methyl-1,2,3,4-tetrahydroisoquinolin-7-yl)-7-oxo-6,7-dihydro-1H-pyrazolo[4,3-d]pyrimidine-3-carbonitrile]
10 | 4.40 to 5.00 | CN1CCc2cc(N3CCc4c(C(=O)NCC5CC5)nn(-c5cccc(Cl)c5)c4C3=O)ccc2C1=O [Example 1190, 1-(3-chlorophenyl)-N-(cyclopropylmethyl)-6-(2-methyl-1-oxo-1,2,3,4-tetrahydroisoquinolin-6-yl)-7-oxo-4,5,6,7-tetrahydro-1H-pyrazolo[3,4-c]pyridine-3-carboxamide]
11 | 6.00 to 6.52 | CC1(C)OCCC1NC(=O)c1nn(-c2cccc(Cl)c2)c2c1CCN(c1cccc(CN3CCCCC3)c1)C2=O (stereo not drawn) [Example 1164, 1-(3-chlorophenyl)-N-(2,2-dimethyltetrahydrofuran-3-yl)-7-oxo-6-(3-(piperidin-1-ylmethyl)phenyl)-4,5,6,7-tetrahydro-1H-pyrazolo[3,4-c]pyridine-3-carboxamide]
12 | 5.00 to 5.52 | CN1C(=O)CCCc2ccc(N3CCc4c(C(=O)NCC5CC5)nn(-c5cccc(Cl)c5)c4C3=O)cc21 [Example 1242, 1-(3-chlorophenyl)-N-(cyclopropylmethyl)-6-(1-methyl-2-oxo-2,3,4,5-tetrahydro-1H-benzo[b]azepin-8-yl)-7-oxo-4,5,6,7-tetrahydro-1H-pyrazolo[3,4-c]pyridine-3-carboxamide]
13 | 6.00 to 6.52 | CN1CCc2ccc(N3CCc4c(C(=O)NCC5CC5)nn(-c5cc(Cl)cc(C(N)=O)c5)c4C3=O)cc2C1=O [Example 2014, 1-(3-carbamoyl-5-chlorophenyl)-N-(cyclopropylmethyl)-6-(2-methyl-1-oxo-1,2,3,4-tetrahydroisoquinolin-7-yl)-7-oxo-4,5,6,7-tetrahydro-1H-pyrazolo[3,4-c]pyridine-3-carboxamide]
14 | 7.00 to 8.00 | O=C(NCc1ncccc1Cl)c1nn(-c2cccc(Cl)c2)c2c1CCN(c1ccc3c(c1)CN(CCO)CC3)C2=O [Example 1170, 1-(3-chlorophenyl)-N-((3-chloropyridin-2-yl)methyl)-6-(2-(2-hydroxyethyl)-1,2,3,4-tetrahydroisoquinolin-7-yl)-7-oxo-4,5,6,7-tetrahydro-1H-pyrazolo[3,4-c]pyridine-3-carboxamide]
15 | 6.00 to 6.52 | CC1CCN(Cc2cccc(N3CCc4c(C(=O)NCc5ccccc5)nn(-c5cccc(Cl)c5)c4C3=O)c2)C1 (stereo not drawn) [Example 1038, N-benzyl-1-(3-chlorophenyl)-6-(3-((3-methylpyrrolidin-1-yl)methyl)phenyl)-7-oxo-4,5,6,7-tetrahydro-1H-pyrazolo[3,4-c]pyridine-3-carboxamide]
16 | 4.40 to 5.00 | CN1CCC(CN2CCc3c(C(=O)NCc4ccccc4)nn(-c4cccc(Cl)c4)c3C2=O)CC1 [Example 1016, N-Benzyl-1-(3-chlorophenyl)-6-((1-methylpiperidin-4-yl)methyl)-7-oxo-4,5,6,7-tetrahydro-1H-pyrazolo[3,4-c]pyridine-3-carboxamide]
17 | 5.52 to 6.00 | O=C(O)CN1CCc2ccc(N3CCc4c(C(=O)NCC5CC5)nn(-c5cccc(Cl)c5)c4C3=O)cc2C1 [Example 1095, 2-(7-(1-(3-chlorophenyl)-3-((cyclopropylmethyl)carbamoyl)-7-oxo-1,4,5,7-tetrahydro-6H-pyrazolo[3,4-c]pyridin-6-yl)-3,4-dihydroisoquinolin-2(1H)-yl)acetic acid]
18 | 5.52 to 6.00 | CN1CCc2ccc(N3CCc4c(C(=O)NCC5CC5)nn(-c5csc(Cl)c5)c4C3=O)cc2C1=O [Example 2015]
19 | 6.00 to 6.52 | C[C@@H](CO)N1CCc2ccc(N3CCc4c(C(=O)NCC5CC5)nn(-c5cccc(Cl)c5)c4C3=O)cc2C1 [Example 1113, (S)-1-(3-chlorophenyl)-N-(cyclopropylmethyl)-6-(2-(1-hydroxypropan-2-yl)-1,2,3,4-tetrahydroisoquinolin-7-yl)-7-oxo-4,5,6,7-tetrahydro-1H-pyrazolo[3,4-c]pyridine-3-carboxamide]
20 | 4.40 to 5.00 | O=C(NCC1CC1)c1nn(-c2cccc(Cl)c2)c2c1CCN(c1cccc(CN3CCOC3=O)c1)C2=O [Example 1316, 1-(3-chlorophenyl)-N-(cyclopropylmethyl)-7-oxo-6-(3-((2-oxooxazolidin-3-yl)methyl)phenyl)-4,5,6,7-tetrahydro-1H-pyrazolo[3,4-c]pyridine-3-carboxamide]
21 | 5.00 to 5.52 | CN(CCO)C(=O)c1cccc(N2CCc3c(C(=O)NCC4CC4)nn(-c4cccc(Cl)c4)c3C2=O)c1 [Example 1312, 1-(3-chlorophenyl)-N-(cyclopropylmethyl)-6-(3-((2-hydroxyethyl)(methyl)carbamoyl)phenyl)-7-oxo-4,5,6,7-tetrahydro-1H-pyrazolo[3,4-c]pyridine-3-carboxamide]
22 | 5.00 to 5.52 | CN1CCc2ccc(N3CCc4c(C(=O)N5CCOCC5)nn(-c5cccc(Cl)c5)c4C3=O)cc2C1=O [Example 1272, 7-(1-(3-chlorophenyl)-3-(morpholine-4-carbonyl)-7-oxo-1,4,5,7-tetrahydro-6H-pyrazolo[3,4-c]pyridin-6-yl)-2-methyl-3,4-dihydroisoquinolin-1(2H)-one]
23 | 5.52 to 6.00 | N#CCN1CCc2ccc(N3CCc4c(C(=O)NCC5CC5)nn(-c5cccc(Cl)c5)c4C3=O)cc2C1 [Example 1100, 1-(3-chlorophenyl)-6-(2-(cyanomethyl)-1,2,3,4-tetrahydroisoquinolin-7-yl)-N-(cyclopropylmethyl)-7-oxo-4,5,6,7-tetrahydro-1H-pyrazolo[3,4-c]pyridine-3-carboxamide]
24 | 5.52 to 6.00 | CN1CCc2ccc(N3CCc4c(C(=O)N5CCOCC5)nn(-c5cccc(Cl)c5)c4C3=O)cc2C1 [Example 1067, 1-(3-chlorophenyl)-6-(2-methyl-1,2,3,4-tetrahydroisoquinolin-7-yl)-3-(morpholine-4-carbonyl)-1,4,5,6-tetrahydro-7H-pyrazolo[3,4-c]pyridin-7-one]
